The target in assay [1] is T1, von Hippel-Lindau disease tumor suppressor/Lysine-specific demethylase 4A (Homo sapiens, UniProt O75164+P40337). As to the kind of experiment: PROTAC activity at VHL/KDM4A in human KYSE-150 cells assessed as induction of KDM4A degradation at 0.1 uM incubated for 12 hrs by Western blot analysis relative to control. It counts as cell-based. As to conditions: KYSE-150 cell line. Background: A western blot detects proteins with antibodies after separation by electrophoresis.
T1 sequence (O75164 2-1064 limits assumed): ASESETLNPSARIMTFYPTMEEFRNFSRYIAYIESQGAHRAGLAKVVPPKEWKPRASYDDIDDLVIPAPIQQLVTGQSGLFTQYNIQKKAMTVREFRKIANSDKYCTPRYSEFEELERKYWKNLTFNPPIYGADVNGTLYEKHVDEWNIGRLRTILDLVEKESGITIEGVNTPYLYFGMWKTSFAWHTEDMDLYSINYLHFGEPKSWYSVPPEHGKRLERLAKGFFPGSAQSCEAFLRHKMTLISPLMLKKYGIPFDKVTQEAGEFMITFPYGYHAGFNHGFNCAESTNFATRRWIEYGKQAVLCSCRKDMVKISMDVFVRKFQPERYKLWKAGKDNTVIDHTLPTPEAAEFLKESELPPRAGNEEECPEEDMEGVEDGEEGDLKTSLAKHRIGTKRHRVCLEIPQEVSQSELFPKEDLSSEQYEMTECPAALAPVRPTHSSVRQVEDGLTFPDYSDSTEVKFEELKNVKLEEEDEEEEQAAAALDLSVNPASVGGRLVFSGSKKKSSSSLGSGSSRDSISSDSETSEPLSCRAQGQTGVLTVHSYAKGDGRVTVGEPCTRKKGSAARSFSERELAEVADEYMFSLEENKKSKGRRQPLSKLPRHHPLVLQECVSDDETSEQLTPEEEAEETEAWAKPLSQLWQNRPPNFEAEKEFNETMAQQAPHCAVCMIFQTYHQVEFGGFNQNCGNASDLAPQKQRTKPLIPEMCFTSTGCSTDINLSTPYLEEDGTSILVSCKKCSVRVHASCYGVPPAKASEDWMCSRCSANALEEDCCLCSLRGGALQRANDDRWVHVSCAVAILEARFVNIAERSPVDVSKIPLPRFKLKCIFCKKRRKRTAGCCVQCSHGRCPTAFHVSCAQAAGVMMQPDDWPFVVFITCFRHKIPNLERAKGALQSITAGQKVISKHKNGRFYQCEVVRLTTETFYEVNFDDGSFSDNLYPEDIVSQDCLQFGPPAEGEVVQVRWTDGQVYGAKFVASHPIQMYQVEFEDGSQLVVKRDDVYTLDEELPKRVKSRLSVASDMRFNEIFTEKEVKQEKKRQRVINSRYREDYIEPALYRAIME
T1 sequence (P40337 whole entry partner): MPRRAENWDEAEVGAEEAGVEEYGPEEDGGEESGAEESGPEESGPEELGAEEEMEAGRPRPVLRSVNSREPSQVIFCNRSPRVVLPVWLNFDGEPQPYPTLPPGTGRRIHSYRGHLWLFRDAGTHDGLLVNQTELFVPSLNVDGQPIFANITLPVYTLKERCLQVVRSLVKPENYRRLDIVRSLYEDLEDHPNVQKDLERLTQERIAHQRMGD

Assay [2] has as its target T1, von Hippel-Lindau disease tumor suppressor/Lysine-specific demethylase 4A. As to the kind of experiment: PROTAC activity at VHL/KDM4A in human KYSE-150 cells assessed as induction of KDM4A degradation at 1 uM incubated for 12 hrs by Western blot analysis relative to control. The format is cell-based. The following applies: KYSE-150 cell line.

Turning to `Cc1ncsc1-c1ccc([C@H](C)NC(=O)[C@@H]2C[C@@H](O)CN2C(=O)[C@@H](NC(=O)c2ccc(CCCCCCOc3ccc(N(C)c4ccc5c(c4)OCC[C@H]5CNc4cnccc4C(=O)O)cc3)cc2)C(C)(C)C)cc1`, the Activity is 52.4% in assay [1] and 54.5% in assay [2].
For `Cc1ncsc1-c1ccc([C@H](C)NC(=O)[C@@H]2C[C@@H](O)CN2C(=O)[C@@H](NC(=O)CCCCCCCCCCOc2ccc(N(C)c3ccc4c(c3)OCC[C@H]4CNc3cnccc3C(=O)O)cc2)C(C)(C)C)cc1`, the values for the Activity in assay [1] and in assay [2] were 36.7% and 58.6%, respectively.
As to `Cc1ncsc1-c1ccc([C@H](C)NC(=O)[C@@H]2C[C@@H](O)CN2C(=O)[C@@H](NC(=O)CCCCCCOc2ccc(N(C)c3ccc4c(c3)OCC[C@H]4CNc3cnccc3C(=O)O)cc2)C(C)(C)C)cc1`, the results for the Activity in assay [1] and in assay [2] were 48.5% and 57.9%, respectively.
As for `Cc1ncsc1-c1ccc([C@H](C)NC(=O)[C@@H]2C[C@@H](O)CN2C(=O)[C@@H](NC(=O)CCOCCOCCOCCOc2ccc(N(C)c3ccc4c(c3)OCC[C@H]4CNc3cnccc3C(=O)O)cc2)C(C)(C)C)cc1`, the Activity in assay [1] was -2.5%; in assay [2], 15.5%.
Taken in the same sequence, the figures for `Cc1ncsc1-c1ccc([C@H](C)NC(=O)[C@@H]2C[C@@H](O)CN2C(=O)[C@@H](NC(=O)c2ccc(CCCCCOc3ccc(N(C)c4ccc5c(c4)OCC[C@H]5CNc4cnccc4C(=O)O)cc3)cc2)C(C)(C)C)cc1` were 42.7% and 63.1%.
In the same order, the values of `Cc1ncsc1-c1ccc([C@H](C)NC(=O)[C@@H]2C[C@@H](O)CN2C(=O)[C@@H](NC(=O)c2ccc(CCCCOc3ccc(N(C)c4ccc5c(c4)OCC[C@H]5CNc4cnccc4C(=O)O)cc3)cc2)C(C)(C)C)cc1` are 30.5% and 43.9%.
Consider `Cc1ncsc1-c1ccc([C@H](C)NC(=O)[C@@H]2C[C@@H](O)CN2C(=O)[C@@H](NC(=O)C2CCN(C(=O)CCCCCOc3ccc(N(C)c4ccc5c(c4)OCC[C@H]5CNc4cnccc4C(=O)O)cc3)CC2)C(C)(C)C)cc1`, for which the Activity worked out at 19.5% in assay [1] and 12% in assay [2].
Taken in the same sequence, the figures for `Cc1ncsc1-c1ccc([C@H](C)NC(=O)[C@@H]2C[C@@H](O)CN2C(=O)[C@@H](NC(=O)CCCCCCCOc2cccc(N(C)c3ccc4c(c3)OCC[C@H]4CNc3cnccc3C(=O)O)c2)C(C)(C)C)cc1` were -0.2% and 41.1%.
As for `Cc1ncsc1-c1ccc([C@H](C)NC(=O)[C@@H]2C[C@@H](O)CN2C(=O)[C@@H](NC(=O)CCCCCCCCCCCOc2ccc(N(C)c3ccc4c(c3)OCC[C@H]4CNc3cnccc3C(=O)O)cc2)C(C)(C)C)cc1`, the Activity in assay [1] is 47.1%; in assay [2] it was 58.5%.
With `Cc1ncsc1-c1ccc([C@H](C)NC(=O)[C@@H]2C[C@@H](O)CN2C(=O)[C@@H](NC(=O)CCCCCOc2ccc(N(C)c3ccc4c(c3)OCC[C@H]4CNc3cnccc3C(=O)O)cc2)C(C)(C)C)cc1`, the Activity in assay [1] stood at 15.9%; in assay [2] it was 14.1%.
For `Cc1ncsc1-c1ccc([C@H](C)NC(=O)[C@@H]2C[C@@H](O)CN2C(=O)[C@@H](NC(=O)CCOCCOCCOc2ccc(N(C)c3ccc4c(c3)OCC[C@H]4CNc3cnccc3C(=O)O)cc2)C(C)(C)C)cc1`, the Activity in assay [1] was found to be 6.5%; in assay [2], 15.5%.
On to `Cc1ncsc1-c1ccc([C@H](C)NC(=O)[C@@H]2C[C@@H](O)CN2C(=O)[C@@H](NC(=O)c2ccc(C#CCCCCOc3ccc(N(C)c4ccc5c(c4)OCC[C@H]5CNc4cnccc4C(=O)O)cc3)cc2)C(C)(C)C)cc1`, for which the values for the Activity in assay [1] and in assay [2] were 38.7% and 47.3%, respectively.
As to `Cc1ncsc1-c1ccc([C@H](C)NC(=O)[C@@H]2C[C@@H](O)CN2C(=O)[C@@H](NC(=O)CCCCCCCCOc2ccc(N(C)c3ccc4c(c3)OCC[C@H]4CNc3cnccc3C(=O)O)cc2)C(C)(C)C)cc1`, the Activity in assay [1] amounted to 34.6%; in assay [2], 53.9%.
Taken in the same sequence, the figures for `Cc1ncsc1-c1ccc([C@H](C)NC(=O)[C@@H]2C[C@@H](O)CN2C(=O)[C@@H](NC(=O)CCCCCCCOc2ccc(N(C)c3ccc4c(c3)OCC[C@H]4CNc3cnccc3C(=O)O)cc2)C(C)(C)C)cc1` were 37.1% and 57.2%.

The values are drawn from ChEMBL document CHEMBL6115000, “Discovery of a first-in-class PROTAC degrader of histone lysine demethylase KDM4” (Eur J Med Chem, 2025).
